# Measured values reported in US20190328755A1, “METHODS OF TREATING COMPLEX REGIONAL PAIN SYNDROME (CRPS) OR SYMPTOMS COMPRISING ADMINISTRATION OF […]” (GRUNENTHAL GMBH, priority 2018, published 2019).
# Tested on: subjects with CRPS
# Assay: Open-label single-arm Phase III trial of intravenous neridronic acid, average pain intensity (11-point NRS)
# Type: in vivo, human
# Conditions: subjects with CRPS duration >2 years; 400 mg i.v. cumulative, 4 infusions of 240 min; interim look
# Procedure: A multi-site, open-label, single-arm, Phase III safety trial of intravenous neridronic acid at a cumulative dose of 400 mg was conducted in subjects with CRPS to investigate the safety and tolerability of intravenous neridronic acid in subjects with CRPS.
# The trial product was supplied in glass vials, each containing 111.2 mg sodium neridronate hemihydrate (equivalent to 100 mg neridronic acid) in a total volume of 8 mL. For each infusion, before use, the trial product was diluted in sterile normal saline (0.9% NaCl, e.g., United States Pharmacopeia (USP) grade saline for injection) to a volume of approximately 500 mL and administered by slow intravenous infusion (240 minutes [maximum 260 minutes]) at day 1, day 4, day 7 and day 10, resulting in a total dose of 400 mg neridronic acid.
# In addition, the trial provided supportive data on efficacy and long-term effectiveness of neridronic acid of 400 mg. Average, worst (both with a 24-hour recall period) and current pain intensity was measured at the trial visits using an 11-point numerical rating scale on a tablet computer.
# The trial included an enrollment period lasting up to 60 days, a treatment period consisting of 4 infusions of neridronic acid over 10 days, and a follow-up period of approximately 50 weeks. […]
compound,measurement,value
NCCCCCC(O)(P(=O)(O)O)P(=O)(O)O [neridronic acid],mean (standard deviation) change from baseline to Day 84 in average pain intensity (NRS),−1.22 (2.197)
